The values below are quoted from earlier work in patent US20070281345A1, “Enzymatic Method of Making Aldehydes from Fatty Acids” (Archer-Daniels-Midland Company, priority 2006, published 2007).

For the series the following is noted: AOCS Method Tg1a-67 (determined) or Cd1c-85 (calculated).
`CCCCC/C=C\C/C=C\C/C=C\C/C=C\CCCC(=O)O` [arachidonic acid]: the iodine value entry is reported as “greater than the iodine value of linoleic acid”.
For the compound `CCC=CCC=CCC=CCC=CCC=CCC=CCCC(=O)O` [docosahexaenoic acid, 4,7,10,13,16,19-docosahexaenoic acid], the iodine value result is reported as “greater than the iodine value of linoleic acid”.
`CCCCCCCC/C=C\CCCCCCCC(=O)O` [oleic acid]: the iodine value is on record as 89.
In the case of `CCCCC/C=C\C/C=C\CCCCCCCC(=O)O` [linoleic acid], the iodine value is 173.
With `CCC=CCC=CCC=CCC=CCC=CCCCC(=O)O` [eicosapentaenoic acid, 5,8,11,14,17-eicosapentaenoic acid], the iodine value entry is “greater than the iodine value of linoleic acid”.
